What was measured:
[1] = test system: B16SIY murine melanoma cells; test: DNA damage foci (γH2AX, 53BP1) and SA-βGal senescence in B16SIY cells in vitro; format: cell-based, mouse; conditions: with IR
Procedure: (§1) Slides were deparaffinized in xylene and hydrated with alcohol before being placed in 0.3% H2O2/methanol blocking solution to quench endogenous peroxidase activity followed by subsequent antigen unmasking in EDTA buffer. […] Reactions were developed with 3,3′-diaminobenzidine chromogen or Vulcan Red, respectively, and counterstained with hematoxylin. Negative controls were obtained by using isotype-matched primary antibody IgG. The SA-βGal assay was performed using the Senescence Beta-galactosidase Staining Kit (Cell Signaling) (Dunn 2006). All images were captured using Zeiss Axiovert 200M and Zeiss Axiocam color digital camera controlled by OpenLab software with a 20× objective. All primers sequence and running protocols for RT-PCR can be found in reference Table 2 (Lugade 2008, Zhang 2008).
B16SIY cells were maintained in a full medium supplemented with 10% FCS. The cells were pretreated with 10 μm veliparib then exposed to 6 or 12 Gy x-ray or IR alone (Gammacell 1000; MDS Nordion, Kanata, Ontario, Canada), then cocultured with immature BM-DC in a transwell system. 3 days later BM-DC were collected and analyzed by FACS for cell surface maturation marker and intracellular cytokines. These BM-DC were used to stimulate sorted CD4+ cells (Lugade 2008, Zhang 2008).

[2] = test system: murine pancreatic cancer cell line p1048; test: SA-βGal staining and cytokine expression in p1048 cells; format: cell-based, mouse
Procedure: as §1

B16 tumors = test: RT-qPCR and immunohistochemistry of treated B16 tumors; format: in vivo, mouse
Procedure: Mouse melanoma cell line B16SIY (5×10^5 cells) were implanted subcutaneously in the flank of 6 to 8-wk-old C57/B6 mice. Tumors were allowed to grow until they reached a volume of about 100 to 150 mm^3 (approximately 2 wk) before treatment with PARP inhibitor veliparib (vrib, (R)-2-(2-methylpyrrolidin-2-yl)-1H-benzo[d]imidazole-4-carboxamide, ABT-888) and/or IR (Dunn 2006). Mice received 0.5 mg of veliparib in water twice daily by oral gavage as indicated. CD8^+, CD4^+, NK cells were depleted by anti-CD8 or anti-CD4 or anti-NK1.1, respectively, 1 d before IR. Depletion was confirmed by checking peripheral blood samples by flow cytometry. Macrophages were depleted with liposomal clodronate starting 1 d before IR. Depletion was confirmed by checking splenocyte and tumor samples by flow cytometry (Zhang 2008). Samples were collected 2 to 7 days later, and analyzed by flow cytometry using a BD LSRII flow cytometer. Blood samples were gated in forward scatter and side scatter on smaller cells for CD8, CD4 analysis, larger cells for NK and macrophage, and the percentage of different cell types were determined (Lugade 2008, Zhang 2010).
as §1

[3] = test system: 22Rv1 (human) prostate carcinoma cells; test: Flow cytometric detection of SA-βGal with DDAO-G; format: cell-based
Procedure: Prostate carcinoma (PCa) cell lines included 22Rv1 (human) and TRAMP-C2 (murine, ATCC). PCa cell lines were propagated in complete culture medium using sterile culture flasks in a humidified, 5% CO2 incubator at 37° C. For 22Rv1 human PCa cells, complete media consisted of RPMI-1640 1× (modified without L-glutamine, Invitrogen) supplemented with fetal bovine serum (FBS, 10%, Gemini Biosciences), stabilized L-glutamine (2 mM, Gemini Biosciences), and penicillin-streptomycin solution (100 U/ml penicillin, 100 μg/ml streptomycin, Invitrogen). For TRAMP-C2 murine PCa cells, complete medium consisted of DMEM (modified with 4.5 g/l glucose and without L-glutamine, Invitrogen) supplemented with FBS (5%), Nu-Serum IV (5%, BD Biosciences), stabilized L-glutamine (4 mM), dehydroisoandrosterone (10 nM, Sigma-Aldrich), bovine insulin (5 μg/ml, Sigma-Aldrich), and penicillin-streptomycin solution (100 U/ml penicillin, 100 μg/ml streptomycin).
Cells were plated at low density (˜25×10^3 cells/cm^2) and incubated overnight to allow adherence to culture surfaces. The following day, PARP inhibitor veliparib (ABT-888, 10 μM in DMSO, ChemieTek) was added (or not) to freshly changed media to enhance uptake of the compound. Cells were incubated with veliparib for 60 minutes at 37° C. in 5% CO2 prior to gamma irradiation (IR, 6 Gy). Treated and untreated cells were then incubated undisturbed for 5 days to allow senescence to proceed.
Cells were pelleted by centrifugation for 5 minutes at 1000×g, supernatant removed, and pellet resuspended in 1% bovine serum albumin (BSA, United States Biological) in DPBS. Cell suspensions were counted (cells/mL) using a handheld counting device (Scepter, Millipore). […]
Analysis of SA-βGal signal was conducted by flow cytometry, using an LSRII cytometer (Becton Dickinson) equipped with a 633 nm red diode laser and a 670/30 (APC) bandpass filter suitable for DDAO red fluorescent signal excitation and emission detection. […] Single, whole cells were then visualized on a red-fluorescence vs SSC-A plot in order to define senescent SA-βGal^+ SSC^high cells. […]

[4] = veliparib+IR, 7 days after irradiation
[5] = veliparib+IR cells, FSC vs. SSC

C[C@]1(c2nc3c(C(N)=O)cccc3[nH]2)CCCN1 [veliparib, (R)-2-(2-methylpyrrolidin-2-yl)-1H-benzo[d]imidazole-4-carboxamide]
DNA damage foci resolution (γH2AX, p53BP1) ([1]; 24 h): delayed DNA damage foci resolution | accelerated senescence (cell morphology, SA-βGal) ([1]; day 7): induced accelerated senescence | accelerated senescence and SASP ([2]; veliparib and 12 Gy): entering accelerated senescence and displaying an altered SASP | SA-βGal staining [2, 4]: induced SA-βGal staining | cytokine expression [2, 4]: upregulation of multiple cytokines | SASP gene expression in tumors (IFNβ, IFNγ, CCL2, CCL5, CXCL9, CXCL10, CXCL11) (B16 tumors; veliparib+IR): increased expression of SASP genes | immunohistochemistry of enlarged senescent tumor cells (B16 tumors; veliparib+IR): distinct strong staining of IFNβ, CCL2, CXCL9 and CXCL10 | p21 and p16 expression in tumors (B16 tumors; veliparib+IR vs IR alone, normalized to GAPDH): significantly increased expression of p21 and p16 | B-Gal high cells within the region shown by the black rectangle [3, 5]: 41% | B-Gal- or B-Gal low cells within the region shown by the black rectangle [3, 5]: 59% | cells in senescent gate (B-Gal vs. SSC) ([3]; veliparib+IR treated viable cells): 20%

Source: US20150024008A1, “Methods and Compositions Involving Induced Senescent Cells for Cancer Treatment” (THE UNIVERSITY OF CHICAGO, priority 2011, published 2015)
